The values below come from US20060275170A1, “Method for terminal sterilization of transdermal delivery devices” (priority 2005, published 2006).

“Also recorded” adds a separate entry of the source.

Common to all, as to assay type: physicochemical
Data set [1] in a line: Example 3: purity and oxidation of coated hPTH(1-34) after gamma irradiation; packaging, purge gas and temperature varied (RP-HPLC, SEC-HPLC). The procedure: Formulations of hPTH(1-34) were prepared as set forth in Example 1, and coated on microprojection arrays. Certain arrays were assembled with a polycarbonate retainer ring and an adhesive. The arrays were sealed in foil pouches purged with nitrogen or ambient air or in glass vials. The arrays were exposed to 14 or 21 kGy of gamma radiation under dry ice or an ambient temperature. As discussed above, the purity and degradation of the PTH formulations was assessed using RP-HPLC and SEC-HPLC.
For orientation: In gel filtration, larger molecules generally elute earlier.

Data set [2] in a line: Example 1: purity and degradation products of hPTH(1-34) coated microprojection arrays after gamma or e-beam irradiation (RP-HPLC and SEC-HPLC). As to the method: Validation reverse-phase and size-exclusion high pressure liquid chromatography (RP-HPLC and SEC-HPLC, respectively) were used to quantify PTH oxidation resulting from exposure to the sterilizing radiation. Formulations of hPTH(1-34) were prepared, comprising 20% w/w HPTH, 20% sucrose, 0.2% polysorbate 20 and 0.03% EDTA. The PTH formulations were coated onto microprojection arrays, which were then enclosed in glass vials. The coated arrays were irradiated with 7, 14 or 21 kGy radiation doses, from either gamma radiation or e-beam, under dry ice or an ambient temperature. […] Tables 1 and 2 give the data corresponding to the purity and degradation products for gamma radiation and e-beam, respectively.

Data set [3] is described as follows: Example 2: purity and oxidation of coated hPTH after gamma irradiation or ethylene oxide sterilization; packaging and antioxidants varied (RP-HPLC, SEC-HPLC). The settings on record: for degradation: glass vial. As to the method: Formulations of hPTH(1-34) were prepared as set forth in Example 1, and coated on microprojection arrays. In addition to the standard 1:1 sucrose:hPTH formulations discussed above, the effect of antioxidants was assessed by adding to selected samples 5% w/w methionine or 3.3% w/w ascorbic acid. The coated arrays were placed in nitrogen purged heat-sealed foil pouches or glass vials. Also, one of the samples was subjected to ethylene oxide sterilization as a comparison. The remaining samples were subjected to dose of gamma radiation of either 7, 14 or 21 kGy under dry ice or an ambient temperature. As discussed above, the purity and degradation of the PTH formulations was assessed using RP-HPLC and SEC-HPLC.

The nature of data set [4]: Example 4: purity of coated hPTH(1-34) after 15 kGy gamma or e-beam; desiccant, temperature and sucrose content varied (RP-HPLC, SEC-HPLC). As to the method:
In this example, formulations of hPTH(1-34) were prepared, comprising 20% w/w HPTH, 20% sucrose or 40% sucrose, 0.2% polysorbate 20 and 0.03% EDTA. The arrays were assembled with a polycarbonate retainer ring and an adhesive. The arrays were sealed in foil pouches purged with nitrogen. Certain samples included a 4 Å molecular seive desiccant. The arrays were exposed to 15 kGy of gamma or e-beam radiation at under dry ice, 2-8° C. or an ambient temperature. As discussed above, the purity and degradation of the PTH formulations was assessed using RP-HPLC and SEC-HPLC.

On to `CC[C@H](C)[C@H](NC(=O)[C@H](CCC(=O)O)NC(=O)[C@H](CO)NC(=O)[C@@H](NC(=O)[C@@H](N)CO)C(C)C)C(=O)N[C@@H](CCC(N)=O)C(=O)N[C@@H](CC(C)C)C(=O)N[C@@H](CCSC)C(=O)N[C@@H](Cc1cnc[nH]1)C(=O)N[C@@H](CC(N)=O)C(=O)N[C@@H](CC(C)C)C(=O)NCC(=O)N[C@@H](CCCCN)C(=O)N[C@@H](Cc1cnc[nH]1)C(=O)N[C@@H](CC(C)C)C(=O)N[C@@H](CC(N)=O)C(=O)N[C@@H](CO)C(=O)N[C@@H](CCSC)C(=O)N[C@@H](CCC(=O)O)C(=O)N[C@@H](CCCN=C(N)N)C(=O)N[C@H](C(=O)N[C@@H](CCC(=O)O)C(=O)N[C@@H](Cc1c[nH]c2ccccc12)C(=O)N[C@@H](CC(C)C)C(=O)N[C@@H](CCCN=C(N)N)C(=O)N[C@@H](CCCCN)C(=O)N[C@@H](CCCCN)C(=O)N[C@@H](CC(C)C)C(=O)N[C@@H](CCC(N)=O)C(=O)N[C@@H](CC(=O)O)C(=O)N[C@H](C(=O)N[C@@H](Cc1cnc[nH]1)C(=O)N[C@@H](CC(N)=O)C(=O)N[C@@H](Cc1ccccc1)C(=O)O)C(C)C)C(C)C` [hPTH(1-34)], for which the stability following irradiation result in data set [1] (arrays with polycarbonate retainer ring and acrylate adhesive, nitrogen purged foil pouch, 14 and 21 kGy, dry ice, FIG. 12) is listed as “adequate stability”. The oxidation entry in data set [1] (gamma 14 kGy, foil pouch sealed with ambient air, dry ice and ambient temperature, FIG. 11) is listed as “major oxidation”; in data set [1] (gamma 21 kGy, ambient temperature, nitrogen purged glass vial, FIG. 10), “approximately 40%”; in data set [3] (gamma irradiated samples packaged in nitrogen purged foil pouches), “minimal oxidation”. Further, in data set [1] (gamma 14 kGy, nitrogen purged foil pouch, dry ice and ambient temperature, FIG. 11), the purity entry was “comparable to the controls”. In addition, the increase in oxidation entry in data set [1] (gamma 21 kGy, ambient temperature, nitrogen purged foil pouch, FIG. 10) is “approximately 2%”. Besides, the “increase in overall oxidation” value is reported as “less than 4%” in data set [1] (gamma 21 kGy, nitrogen purged foil pouch, ambient temperature) and “less than 2%” in data set [1] (gamma 21 kGy, nitrogen purged foil pouch, dry ice). Also, the “loss in purity relative to the control” value in data set [1] (gamma 21 kGy, nitrogen purged foil pouch, FIG. 9) is listed as “did not suffer a significant loss in purity”. Further, in data set [2] (7 kGy under dry ice, compared with other doses and temperatures), the loss of purity entry is “least loss of purity”. For the same molecule, the “degradation (oxidation)” value in data set [2] (21 kGY dose, particularly at an ambient temperature) is on record as “less degradation”. For the same molecule, the aggregation following irradiation result in data set [2] (FIG. 6, gamma and e-beam, 7-21 kGy) is given as “relatively low”. Besides, the “degradation, e-beam sterilization less than gamma radiation” value in data set [2] (at the high radiation doses) was 5-10%. Also, in data set [2] (gamma radiation and e-beam exposure, FIG. 5), the “purity of PTH relative to a control formulation” value is “decreased”. The deamidated products entry in data set [2] (irradiated formulations versus control formulation) is “comparable to the control formulation”. Besides, in data set [3] (FIG. 8), the “deamidation and aggregation degradation products” value is listed as “not prominent”. In addition, the degradation result in data set [3] (ethylene oxide sterilization) is “considerable degradation; also recorded: severe”; in data set [3] (gamma 21 kGy, ambient temperature, FIG. 8), “severe”; in data set [4] (sample without a desiccant, 15 kGy, FIG. 13), “most degradation”. Besides, the morphology result in data set [3] (ethylene oxide sterilized sample) was “altered substantially”. For the same molecule, the “purity of hPTH” value in data set [3] (gamma radiation, samples other than 21 kGy glass vial ambient (foil pouch, dry ice, 7 or 14 kGy), FIG. 7) is “comparable to that of the controls”. Besides, the “impact of amount of sucrose on stability during irradiation” value in data set [4] (1:1 versus 2:1 sucrose:hPTH, gamma or e-beam, FIG. 15) is reported as “did not have a significant impact”. Besides, the “degradation, e-beam sterilization versus gamma irradiation” value in data set [4] (15 kGy, same temperature, FIG. 13) is given as “less degradation”.
